These results are taken from ChEMBL document CHEMBL5291721, “A preclinical secondary pharmacology resource illuminates target-adverse drug reaction associations of marketed drugs” (Nat Commun, 2023).

SMILES strings stand for the structures.

Test [1] addresses T1, Type-1 angiotensin II receptor (Homo sapiens, UniProt P30556).
T1 sequence (P30556 whole entry): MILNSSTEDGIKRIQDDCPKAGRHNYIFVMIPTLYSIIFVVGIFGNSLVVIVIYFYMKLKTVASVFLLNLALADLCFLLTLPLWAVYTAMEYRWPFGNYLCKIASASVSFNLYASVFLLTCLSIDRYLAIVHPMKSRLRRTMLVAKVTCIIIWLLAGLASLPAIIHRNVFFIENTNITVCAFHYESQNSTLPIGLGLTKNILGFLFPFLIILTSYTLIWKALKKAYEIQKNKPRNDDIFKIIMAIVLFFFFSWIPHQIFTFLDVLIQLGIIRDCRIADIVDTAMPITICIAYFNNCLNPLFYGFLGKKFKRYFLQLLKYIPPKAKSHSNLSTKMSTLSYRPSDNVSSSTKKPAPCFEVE

The target of test [2] is T2, Prostaglandin G/H synthase 1 (Rattus norvegicus, UniProt Q63921).
T2 sequence (Q63921 whole entry): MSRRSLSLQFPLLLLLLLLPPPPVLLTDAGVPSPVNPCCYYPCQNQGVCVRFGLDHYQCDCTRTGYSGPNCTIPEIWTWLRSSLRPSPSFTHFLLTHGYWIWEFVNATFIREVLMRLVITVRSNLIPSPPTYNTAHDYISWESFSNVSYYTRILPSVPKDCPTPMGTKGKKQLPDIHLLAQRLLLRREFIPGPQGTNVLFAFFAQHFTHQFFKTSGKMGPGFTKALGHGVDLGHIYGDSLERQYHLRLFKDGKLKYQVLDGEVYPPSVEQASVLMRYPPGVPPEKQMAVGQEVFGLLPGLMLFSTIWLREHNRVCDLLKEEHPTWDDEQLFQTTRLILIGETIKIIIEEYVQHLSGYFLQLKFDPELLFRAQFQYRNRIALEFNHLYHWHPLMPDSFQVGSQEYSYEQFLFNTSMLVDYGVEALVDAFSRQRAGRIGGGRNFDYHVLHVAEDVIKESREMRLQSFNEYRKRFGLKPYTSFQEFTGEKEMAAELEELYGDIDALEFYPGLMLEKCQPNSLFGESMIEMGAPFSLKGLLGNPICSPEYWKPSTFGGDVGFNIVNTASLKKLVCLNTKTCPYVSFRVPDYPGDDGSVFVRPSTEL
It counts as functional.

Test [3] has as its target T3, Muscarinic acetylcholine receptor M1 (Homo sapiens, UniProt P11229).
T3 sequence (P11229 whole entry): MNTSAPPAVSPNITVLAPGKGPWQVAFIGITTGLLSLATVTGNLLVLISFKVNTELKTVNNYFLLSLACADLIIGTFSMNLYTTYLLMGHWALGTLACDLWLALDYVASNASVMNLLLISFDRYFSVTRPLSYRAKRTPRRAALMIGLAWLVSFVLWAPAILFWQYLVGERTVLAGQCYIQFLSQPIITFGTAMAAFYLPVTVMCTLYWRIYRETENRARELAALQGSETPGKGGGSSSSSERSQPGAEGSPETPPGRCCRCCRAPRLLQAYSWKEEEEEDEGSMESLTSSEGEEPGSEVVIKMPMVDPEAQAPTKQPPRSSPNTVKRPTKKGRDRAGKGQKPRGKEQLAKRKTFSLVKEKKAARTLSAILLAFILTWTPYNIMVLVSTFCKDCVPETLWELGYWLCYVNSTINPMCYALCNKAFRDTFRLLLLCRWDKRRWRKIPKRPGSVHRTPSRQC

Test [4] concerns the target T4, Retinoic acid receptor gamma (Homo sapiens, UniProt P13631).
T4 sequence (P13631 whole entry): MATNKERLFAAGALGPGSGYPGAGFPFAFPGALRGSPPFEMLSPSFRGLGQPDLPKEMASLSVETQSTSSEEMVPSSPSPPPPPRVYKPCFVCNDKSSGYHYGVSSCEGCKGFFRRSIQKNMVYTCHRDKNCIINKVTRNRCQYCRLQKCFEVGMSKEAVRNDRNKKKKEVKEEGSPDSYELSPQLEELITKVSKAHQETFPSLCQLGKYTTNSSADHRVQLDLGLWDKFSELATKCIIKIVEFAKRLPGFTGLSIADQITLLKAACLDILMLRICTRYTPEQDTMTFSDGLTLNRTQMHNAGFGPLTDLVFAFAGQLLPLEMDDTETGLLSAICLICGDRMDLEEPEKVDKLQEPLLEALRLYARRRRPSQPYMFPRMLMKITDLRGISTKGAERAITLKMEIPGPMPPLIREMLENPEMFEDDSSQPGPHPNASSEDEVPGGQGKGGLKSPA
Format: functional, cell-based.

Test [5] deals with T5, Retinoic acid receptor alpha (Homo sapiens, UniProt P10276).
T5 sequence (P10276 whole entry): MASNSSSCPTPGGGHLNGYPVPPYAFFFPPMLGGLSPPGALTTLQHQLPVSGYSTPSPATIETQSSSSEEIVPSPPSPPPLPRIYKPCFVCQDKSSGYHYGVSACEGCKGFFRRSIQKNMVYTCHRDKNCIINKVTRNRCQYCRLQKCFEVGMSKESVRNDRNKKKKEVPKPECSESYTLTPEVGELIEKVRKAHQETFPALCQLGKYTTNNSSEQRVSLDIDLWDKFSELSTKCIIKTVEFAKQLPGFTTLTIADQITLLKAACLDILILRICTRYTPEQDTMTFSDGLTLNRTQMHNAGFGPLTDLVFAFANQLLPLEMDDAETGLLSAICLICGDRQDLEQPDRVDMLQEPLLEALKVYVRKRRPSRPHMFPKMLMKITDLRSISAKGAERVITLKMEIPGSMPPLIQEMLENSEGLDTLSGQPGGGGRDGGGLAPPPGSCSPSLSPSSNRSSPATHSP
It counts as functional, cell-based.

The target of test [6] is T6, Oxysterols receptor LXR-beta (Homo sapiens, UniProt P55055).
T6 sequence (P55055 whole entry): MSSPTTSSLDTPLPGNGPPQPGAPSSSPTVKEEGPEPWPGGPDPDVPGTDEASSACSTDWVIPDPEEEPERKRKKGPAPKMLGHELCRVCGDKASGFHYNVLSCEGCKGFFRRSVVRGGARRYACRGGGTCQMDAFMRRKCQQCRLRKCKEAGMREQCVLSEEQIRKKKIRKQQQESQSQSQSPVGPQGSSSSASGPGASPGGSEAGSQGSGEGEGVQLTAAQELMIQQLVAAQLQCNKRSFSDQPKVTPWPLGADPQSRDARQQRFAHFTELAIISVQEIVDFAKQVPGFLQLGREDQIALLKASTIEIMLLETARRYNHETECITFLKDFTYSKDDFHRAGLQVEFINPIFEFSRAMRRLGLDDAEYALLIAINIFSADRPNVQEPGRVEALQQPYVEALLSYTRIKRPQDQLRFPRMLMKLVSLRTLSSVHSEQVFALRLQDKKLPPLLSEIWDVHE
It counts as functional.
Further: assay procedure not described here.

As to `CN1CCCC(n2nc(Cc3ccc(Cl)cc3)c3ccccc3c2=O)CC1` (stereo unspecified) [AZELASTINE], in test [1], the AC50 was above 100 µM.

`COC(=O)[C@@H]1CC2=CC(=O)CC[C@]2(C)[C@@]23O[C@@H]2C[C@@]2(C)[C@@H](CC[C@@]24CCC(=O)O4)[C@H]13` [EPLERENONE]: in test [2], the AC50 was above 30 µM.

Molecule `Cc1cc2c(cc1CC(=O)c1sccc1S(=O)(=O)Nc1onc(C)c1Cl)OCO2` [SITAXENTAN] gave a concentration at half-maximal activity (AC50) in test [3] above 30 µM.

As to `COc1ccc2c(c1)C(=O)N(CCc1ccc(S(=O)(=O)NC(=O)NC3CCCCC3)cc1)C(=O)C2(C)C` [GLIQUIDONE], the results for the AC50 in test [4], in test [5] and in test [6] were above 30 µM, 22 µM and 2.7 µM, respectively.

One may read the AC50 as the midpoint of the concentration-response curve, whichever way the signal moves.
